pIC50: −log10 of the molar value.
Experiments:
[1] = system: human platelet aggregation; assay: human platelet aggregation inhibition; format: cell-based; details: purified inhibitor, red crystals, read-out: ic50 activity against human platelet aggregation
soybean lipoxygenase = molecular target: T1, soybean lipoxygenase (Glycine max, UniProt P08170); assay: soybean lipoxygenase inhibition; format: biochemical; details: purified inhibitor, red crystals; pH 9; read-out: ic50 activity against soybean lipoxygenase
T1 sequence (P08170 1-839): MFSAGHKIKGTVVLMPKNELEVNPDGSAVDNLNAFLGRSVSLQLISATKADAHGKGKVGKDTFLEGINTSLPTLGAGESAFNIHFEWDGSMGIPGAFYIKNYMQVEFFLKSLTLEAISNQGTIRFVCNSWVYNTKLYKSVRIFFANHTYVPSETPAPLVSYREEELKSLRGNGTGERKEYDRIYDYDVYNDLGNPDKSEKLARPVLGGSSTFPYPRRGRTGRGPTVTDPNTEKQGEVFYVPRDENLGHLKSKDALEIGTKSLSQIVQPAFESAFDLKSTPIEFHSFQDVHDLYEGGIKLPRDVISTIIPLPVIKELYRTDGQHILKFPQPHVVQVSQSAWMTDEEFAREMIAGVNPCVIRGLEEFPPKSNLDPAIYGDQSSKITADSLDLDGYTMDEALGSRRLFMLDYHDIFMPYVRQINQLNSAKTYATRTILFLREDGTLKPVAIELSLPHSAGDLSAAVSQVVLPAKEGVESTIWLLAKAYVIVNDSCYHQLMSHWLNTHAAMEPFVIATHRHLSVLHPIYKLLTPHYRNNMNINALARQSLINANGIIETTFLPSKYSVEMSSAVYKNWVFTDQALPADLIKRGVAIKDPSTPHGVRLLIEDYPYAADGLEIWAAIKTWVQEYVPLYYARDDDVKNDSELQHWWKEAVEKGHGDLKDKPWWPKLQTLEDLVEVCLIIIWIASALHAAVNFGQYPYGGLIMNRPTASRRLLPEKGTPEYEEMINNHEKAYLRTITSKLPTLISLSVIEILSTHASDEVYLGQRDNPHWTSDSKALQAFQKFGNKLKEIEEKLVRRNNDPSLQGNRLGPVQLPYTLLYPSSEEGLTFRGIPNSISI

[2] = solubility in organic solvents; format: physicochemical; details: in chloroform, dimethylsulfoxide, acetonitrile

pIC50 [1]: 3.63
pIC50 (soybean lipoxygenase): 4.02
Solubility [2]: highly soluble
SMILES: CCC(=O)C=CC=CC(C)=CC=CC=Cc1ccccc1 [inhibitor, 8-methyl 13-phenyl trideca 4,6,8,10,12 pentene-3-one]
